The text below walks through data of patent US20240254072A1, “DERIVATIVES OF CANNABIDIOL-C4 FOR THE TREATMENT OF EPILEPSY” (priority 2021, published 2024).

The test system of series [1] is Maximal Electroshock generalised seizures. As to conditions: data of EP3160457 / WO 2020/104796; cited from earlier work.
The conditions of series [2]: range of toxicology screens, WO 2020/104796; cited from earlier work.
The subject of series [3] is inflammation. The following applies: WO 01/95899; cited from earlier work.
Series [4] has as its system pentylenetetrazole-induced generalised seizures. The following applies: data of EP3160457; cited from earlier work.
A short description of series [5]: Bioanalysis of plasma and brain concentrations by UPLC-MS/MS. As to conditions: mouse, i.p., 30 min post-dose, Compound I 100 mg/kg, Compound II 150 mg/kg; for Brain concentration / Brain concentration at 30 min: Location Brain; for Plasma Conc. (individual animal) / concentration at 30 min: Location Plasma; for Brain concentration at 30 min / concentration at 30 min: in vivo. The format is in vivo, mice. The method, then: Each animal was humanely killed immediately after production of a convulsion by destruction of the brain from striking the cranium, followed by the confirmation of permanent cessation of the circulation from decapitation under The Humane Killing of Animals under Schedule 1 to the Animals (Scientific Procedures) Act 1986. Terminal blood and brain collection were performed following decapitation.
Blood was collected in Lithium-heparin tubes and centrifuged at 4 °C for 10 minutes at 1500× g. The resulting plasma was removed (>100 μL) and split into 2 aliquots of 0.5 mL Eppendorf tubes containing 10 μL of ascorbic acid (100 mg/mL) for stabilisation. Brains were removed, washed in saline and halved. Each half was placed into separate 2 mL screw cap cryovials, weighed and frozen on cardice.
Bioanalysis experiments were carried out to determine the quantitative measurement of Compound I and Compound II in plasma and brain.
Six mice were dosed with Compound I at 100 mg/kg and another six with Compound II at 150 mg/kg via intraperitoneal (i.p) injection. Sample analysis was performed 30 min post-dose using a sample volume of 40 μL. Following addition of internal standard (in acetonitrile) and Isopropanol samples were protein precipitated by addition of acetonitrile. Samples were centrifuged and supernatant transferred to a clean 96-well plate (with addition of Tween to minimise non-specific binding to plate materials), evaporated to dryness then reconstituted in suitable solvent. The extracts quantified by ultraperformance liquid chromatography-tandem mass spectrometry (UPLC-MS/MS).

The subject of series [6] is tonic hind limb extensor convulsions induced by electroshock (generalised seizure). Briefly: mini-MEST (maximal electroshock seizure threshold) test in the mouse. As to conditions: for CC50 +/- SEM (current producing tonic hind limb extension in 50% of animals) / % change from vehicle (CC50): mouse, i.p., 30 min post dose, diazepam 2.5 mg/kg, Compound I 100 mg/kg, Compound II 150 mg/kg; for CC50 +/- SEM (current producing tonic hind limb extension in 50% of animals): N=6. The method, then: The maximal electroshock seizure threshold (MEST) test is widely utilized preclinically to evaluate pro- or anti-convulsant properties of test compounds (Loscher et al., 1991).
In the MEST test the ability of a drug to alter the seizure threshold current required to induce hind limb tonic extensor convulsions is measured according to an “up and down” method of shock titration (Kimball et al., 1957). An increase in seizure threshold is indicative of anti-convulsant effect.
The ability of a test compound to alter the stimulus intensity, expressed as current (mA), required to induce the presence of tonic hind limb extensor convulsions, is assessed in the MEST.
Naïve mice were acclimatised to the procedure room in their home cages for up to 7 days, with food and water available ad libitum.
All animals were weighed at the beginning of the study and randomly assigned to treatment groups based on a mean distribution of body weight across groups.
The first animal within a treatment group was given a shock at the expected or estimated CC50 current. For subsequent animals, the current was lowered or raised depending on the convulsions outcome from the preceding animal in log scale intervals.
Data generated from each treatment group were used to calculate the CC50±SEM values for the treatment group.
Vehicle: (5% ethanol, 10% solutol in 85% Saline) was prepared as follows: 1 mL of ethanol, 2 mL of solutol were warmed to 60° ° C., in 17 mL of saline (1:2:17).
The test compounds, described herein as Compound I and Compound II, are as shown as Formula I and Formula II respectively. Test compounds were administered at 100 mg/kg (i.p.) for Compound I and 150 mg/kg (i.p.) for Compound II in a 1:2:17 ethanol:solutol:0.9% saline formulation.
The data for each treatment group were recorded as the number of +'s and 0's at each current level employed and this information is then used to calculate the CC50 value (current required for 50% of the animals to show seizure behaviour)±standard error.
Test compound effects were also calculated as percentage change in CC50 from the vehicle control group.
Significant difference between drug-treated animals and controls were assessed according to Litchfield and Wilcoxon (1949).
A general note: Protection in the maximal electroshock model is a classic sign of anticonvulsant action.

[7] abbreviates: read-out: Mean Plasma Conc., Location Brain.
Where [8] appears, read: read-out: Plasma Conc., Location Brain (individual animal).
The mark [9] stands for this setting: read-out: Plasma Conc. (individual animal).

Several values for one entry are separate records, joined by “and”; a condition that tells them apart may be missing. Equal values may be shown once. Read-outs that look alike come from different tables or passages of the source. A value given as a limit tells only on which side of the number the result lay.

Consider `C=C(C)[C@@H]1CCC(C)=C[C@H]1c1c(O)cc(CCCC)cc1O` [CBD-C4, Cannabidiol-C4], for which the “anticonvulsant effect in MES model” value in series [1] is “Therapeutic efficacy was shown”. Also, the toxicology entry in series [2] is recorded as “acceptable toxicology”.

For the molecule `C=C(C)[C@@H]1CCC(CO)=C[C@H]1c1c(O)cc(CCCCC)cc1O` [Compound 7-OH-CBD, 7-hydroxy-cannabidiol], the “anticonvulsant effect in MES model” value in series [1] was “anticonvulsant effects”. The “effect in model of inflammation” value in series [3] is recorded as “found to be effective”. Moreover, the “anticonvulsant effect in PTZ model” value in series [4] is given as “anticonvulsant effects”.

Take `C=C(C)[C@@H]1CCC(CO)=C[C@H]1c1c(O)cc(CCC)cc1O` [Compound 7-OH-CBDV, 7-hydroxy-cannabidivarin]: the “anticonvulsant effect in MES model” value in series [1] is given as “anticonvulsant effects”. In addition, the “anticonvulsant effect in PTZ model” value in series [4] was “anticonvulsant effects”.

`C=C(C)[C@@H]1CCC(CO)=C[C@H]1c1c(O)cc(CCCC)cc1O` [Compound I, (1′R,2′R)-4-butyl-5′-(hydroxymethyl)-2′-(prop-1-en-2-yl)-1′,2′,3′,4′-tetrahydro-[1,1′-biphenyl]-2,6-diol]: the Brain concentration in series [5] is 122.248 µM and 113.886 µM and 107.349 µM and 125.595 µM and 129.784 µM. Also, the “Plasma Conc. (individual animal)” value in series [5] was 252.278 µM and 248.66 µM and 242.732 µM. Moreover, the Brain concentration at 30 min in series [5] (setting [7]) was determined as 122 µM; in series [5] (setting [8]), 131 µM. The figures for the concentration at 30 min in series [5] (read-out: Mean Plasma Conc.) and in series [5] (setting [9]) were 251 µM and 264 µM, respectively. In addition, the “occurrence of tonic hindlimb convulsions in treatment group” value in series [6] (Compound I 100 mg/kg i.p., 30 min, 6 animals) is “did not have any convulsions”. In addition, the “CC50 +/- SEM (current producing tonic hind limb extension in 50% of animals)” value in series [6] is over 131 mA.

On to `C=C(C)[C@@H]1CCC(C(=O)O)=C[C@H]1c1c(O)cc(CCCC)cc1O` [Compound II, (1R,6R)-4′-butyl-2′,6′-dihydroxy-6-(prop-1-en-2-yl)-1,4,5,6-tetrahydro-[1,1′-biphenyl]-3-carboxylic acid], for which, in series [5], the Brain concentration is 22.356 µM and 22.956 µM and 15.408 µM and 23.332 µM and 19.363 µM; the “Plasma Conc. (individual animal)” value is 856.643 µM and 1008.984 µM and 1144.841 µM and 1209.706 µM and 1141.405 µM. In addition, the Brain concentration at 30 min in series [5] (setting [7]) came out at 19.8 µM. In addition, the Brain concentration at 30 min in series [5] (setting [8]) amounted to 15.7 µM. Besides, the concentration at 30 min in series [5] (read-out: Mean Plasma Conc.) is 1050 µM. In series [5] (setting [9]), the concentration at 30 min is 960 µM. Besides, in series [6], the “% change from vehicle (CC50)” value is under 72% and the “CC50 +/- SEM (current producing tonic hind limb extension in 50% of animals)” value is under 43 mA.

With `CN1C(=O)CN=C(c2ccccc2)c2cc(Cl)ccc21` [Diazepam, diazepam, reference compound], the “% change from vehicle (CC50)” value in series [6] is given as 291%.
